Measurements from patent US9630977B2, “Cephalosporin derivatives and pharmaceutical compositions thereof” (Legochem Biosciences, Inc., priority 2011, dated 2017).
≈ marks a conversion by molar mass, not a printed value. Like-named read-outs stand apart in the source and are kept apart here.

Legend:
Assay in all cases: In vitro antibacterial activity test (broth microdilution)
Type in all cases: cell-based
A. baumannii 46 = tested on: A. baumannii 46
Description: (§1) To evaluate antibacterial activity of each of the compounds of Examples 1 to 68, in vitro antibacterial activity test was performed.
(§2) The in vitro antibacterial activity was evaluated by measuring MIC90 (ug/mL) of each of the compounds of Examples 1 to 68, which is defined as the lowest concentration of an antibiotic that will inhibit the visible growth of 90% of microorganisms after incubation as compared with a control group to which the antibiotic is not treated. MIC90 values were measured by the broth microdilution method developed by the Clinical and Laboratory Standards Institute (CLSI) (see CLSI M7-A5, Methods for Dilution Antimicrobial Susceptibility Test for Bacteria that Grow Aerobically-Fifth Edition (2000): CLSI, Villanova, Pa.).
(§3) In vitro antibacterial activity was measured with respect to the following 19 clinical isolates: M. catarrhalis; P. aeruginosa (5 strains); K. pneumoniae (6 strains); A. baumannii (3 strains); E. coli (2 strains); A. calcoaceticus; and E. cloacae.
(§4) Test compounds each (the cephalosporin derivative compounds prepared in Examples 1 to 68) were dissolved in DMSO at the concentration of 10,240 ug/mL, were diluted by two fold with DMSO, and then were diluted by twenty fold with sterilized distilled water. The final concentration in the antibacterial activity test was in the range of […] to 128 ug/mL, and the final concentration of DMSO used as an adjuvant was 2.5% (V/V).

A. baumannii 49 = tested on: A. baumannii 49
Description: as §1, §2, §3, §4

A. baumannii 52 = conditions: Acinetobacter baumannii
Description: as §1, §2, §3, §4

[1] = tested on: A. calcoaceticus ATCC15473; conditions: Acinetobacter calcoaceticus
Description: as §1, §2, §3, §4

E. cloacae β19 = conditions: Enterobacter cloacae
Description: as §1, §2, §3, §4

E. coli AG100 = conditions: Escherichia coli
Description: as §1, §2, §3, §4

E. coli β4 = conditions: Escherichia coli
Description: as §1, §2, §3, §4

K. pneumoniae 2011E = conditions: Klebsiella pneumoniae, 2011E
Description: as §1, §2, §3, §4

K. pneumoniae β10 = conditions: Klebsiella pneumoniae
Description: as §1, §2, §3, §4

K. pneumoniae β11 = conditions: Klebsiella pneumoniae
Description: as §1, §2, §3, §4

K. pneumoniae β13 = conditions: Klebsiella pneumoniae
Description: as §1, §2, §3, §4

K. pneumoniae β14 = conditions: Klebsiella pneumoniae
Description: as §1, §2, §3, §4

K. pneumoniae β9 = conditions: Klebsiella pneumoniae
Description: as §1, §2, §3, §4

M. catarrhalis 2524 = conditions: Moraxella catarrhalis
Description: as §1, §2, §3, §4

P. aeruginosa 1912E = conditions: Pseudomonas aeruginosa, 1912E
Description: as §1, §2, §3, §4

P. aeruginosa 37 = conditions: Pseudomonas aeruginosa, 37, P. aeruginosa 37
Description: as §1, §2, §3, §4

P. aeruginosa 40 = tested on: P. aeruginosa 40
Description: as §1, §2, §3, §4

P. aeruginosa 43 = conditions: Pseudomonas aeruginosa
Description: as §1, §2, §3, §4

P. aeruginosa 6065Y = conditions: Pseudomonas aeruginosa
Description: as §1, §2, §3, §4

[2] = Acinetobacter baumannii, A. baumannii 46, read-out: MIC90
[3] = Acinetobacter baumannii, A. baumannii 49, read-out: MIC90
[4] = A. baumannii 52, read-out: MIC90
[5] = A. calcoaceticus ATCC15473, read-out: MIC90
[6] = AG100, E. coli AG100, read-out: MIC90
[7] = K. pneumoniae 2011E, read-out: MIC90
[8] = K. pneumoniae β10, read-out: MIC90
[9] = K. pneumoniae β11, read-out: MIC90
[10] = K. pneumoniae β13, read-out: MIC90
[11] = K. pneumoniae β9, read-out: MIC90
[12] = M. catarrhalis 2524, read-out: MIC90
[13] = Pseudomonas aeruginosa, 40, P. aeruginosa 40, read-out: MIC90
[14] = P. aeruginosa 43, read-out: MIC90

MIC90 (A. baumannii 46; [2]) | MIC90 (A. baumannii 49; [3]) | MIC90 (A. baumannii 52; [4]) | MIC90 [1, 5] | MIC90 (E. cloacae β19; read-out: MIC90) | MIC90 (E. coli AG100; [6]) | MIC90 (E. coli β4; read-out: MIC90) | MIC90 (K. pneumoniae 2011E; [7]) | MIC90 (K. pneumoniae β10; [8]) | MIC90 (K. pneumoniae β11; [9]) | MIC90 (K. pneumoniae β13; [10]) | MIC90 (K. pneumoniae β14; read-out: MIC90) | MIC90 (K. pneumoniae β9; [11]) | MIC90 (M. catarrhalis 2524; [12]) | MIC90 (P. aeruginosa 1912E; read-out: MIC90) | MIC90 (P. aeruginosa 37; read-out: MIC90) | MIC90 (P. aeruginosa 40; [13]) | MIC90 (P. aeruginosa 43; [14]) | MIC90 (P. aeruginosa 6065Y; read-out: MIC90) | SMILES | other results
8 µg/mL (≈ 9.85 µM) | > 128 µg/mL | 128 µg/mL (≈ 158 µM) | 2 µg/mL (≈ 2.46 µM) | 8 µg/mL (≈ 9.85 µM) | 1 µg/mL (≈ 1.23 µM) | 2 µg/mL (≈ 2.46 µM) | 2 µg/mL (≈ 2.46 µM) | 1 µg/mL (≈ 1.23 µM) | 64 µg/mL (≈ 78.8 µM) | 1 µg/mL (≈ 1.23 µM) | 8 µg/mL (≈ 9.85 µM) | 1 µg/mL (≈ 1.23 µM) | 2 µg/mL (≈ 2.46 µM) | 2 µg/mL (≈ 2.46 µM) | 8 µg/mL (≈ 9.85 µM) | 2 µg/mL (≈ 2.46 µM) | 4 µg/mL (≈ 4.93 µM) | 8 µg/mL (≈ 9.85 µM) | CC(C)(O/N=C(\C(=O)N[C@@H]1C(=O)N2C(C(=O)[O-])=C(/C=C/C[n+]3cnc(N)c(NC(=O)CCNC(=O)c4cc(=O)c(O)c[nH]4)c3)CSC12)c1csc(N)n1)C(=O)O (stereo partly drawn) [Compound 13] | 
16 µg/mL (≈ 19.5 µM) | 32 µg/mL (≈ 38.9 µM) | 2 µg/mL (≈ 2.43 µM) | 1 µg/mL (≈ 1.22 µM) | 8 µg/mL (≈ 9.73 µM) | 0.25 µg/mL (≈ 0.304 µM) | 8 µg/mL (≈ 9.73 µM) | 8 µg/mL (≈ 9.73 µM) | 0.5 µg/mL (≈ 0.608 µM) | 16 µg/mL (≈ 19.5 µM) | 1 µg/mL (≈ 1.22 µM) | 64 µg/mL (≈ 77.8 µM) | 2 µg/mL (≈ 2.43 µM) | 0.5 µg/mL (≈ 0.608 µM) | 4 µg/mL (≈ 4.87 µM) | 2 µg/mL (≈ 2.43 µM) | 4 µg/mL (≈ 4.87 µM) | 1 µg/mL (≈ 1.22 µM) | 1 µg/mL (≈ 1.22 µM) | C[C@H](O/N=C(\C(=O)N[C@@H]1C(=O)N2C(C(=O)[O-])=C(C[n+]3cnc(N)c(NC(=O)CCNC(=O)c4cc(=O)c(O)cn4O)c3)CSC12)c1nc(N)sc1Cl)C(=O)O (stereo partly drawn) [Compound 20] | 
 |  |  |  |  |  |  |  |  |  |  |  |  |  |  |  |  |  |  | C[C@H](O/N=C(\C(=O)N[C@@H]1C(=O)N2C(C(=O)[O-])=C(/C=C/C[n+]3cnc(N)c(NCCN)c3)CSC12)c1csc(N)n1)C(=O)O (stereo partly drawn) [Compound 52] | MIC90 (A. baumannii 46; Acinetobacter baumannii, 46, A. baumannii 46): 1 µg/mL (≈ 1.58 µM); MIC90 (A. baumannii 49; Acinetobacter baumannii, 49, A. baumannii 49): > 128 µg/mL; MIC90 (A. baumannii 52; 52): > 128 µg/mL; MIC90 ([1]; ATCC15473, A. calcoaceticus ATCC15473): 1 µg/mL (≈ 1.58 µM); MIC90 (E. cloacae β19): 8 µg/mL (≈ 12.6 µM); MIC90 (E. coli AG100; AG100): < 0.0625 µg/mL; MIC90 (E. coli β4): < 0.0625 µg/mL; MIC90 (K. pneumoniae 2011E): < 0.0625 µg/mL; MIC90 (K. pneumoniae β10): 1 µg/mL (≈ 1.58 µM); MIC90 (K. pneumoniae β11): 128 µg/mL (≈ 202 µM); MIC90 (K. pneumoniae β13): 4 µg/mL (≈ 6.32 µM); MIC90 (K. pneumoniae β14): 8 µg/mL (≈ 12.6 µM); MIC90 (K. pneumoniae β9): 4 µg/mL (≈ 6.32 µM); MIC90 (M. catarrhalis 2524; 2524): < 0.0625 µg/mL; MIC90 (P. aeruginosa 1912E): 0.5 µg/mL (≈ 0.79 µM); MIC90 (P. aeruginosa 37): 16 µg/mL (≈ 25.3 µM); MIC90 (P. aeruginosa 40; Pseudomonas aeruginosa, 40): 2 µg/mL (≈ 3.16 µM); MIC90 (P. aeruginosa 43; 43): 32 µg/mL (≈ 50.6 µM); MIC90 (P. aeruginosa 6065Y; 6065Y): 4 µg/mL (≈ 6.32 µM)
